We go through eleven compounds from patent publication US11746374B2, “Methods and platform for screening and selecting metabolites and their receptors” (BOARD OF REGENTS, THE UNIVERSITY OF TEXAS SYSTEM, priority 2017, dated 2023).

In one series the target is T1, P2X2 (Homo sapiens, UniProt Q9UBL9).
T1 sequence (Q9UBL9 1-471): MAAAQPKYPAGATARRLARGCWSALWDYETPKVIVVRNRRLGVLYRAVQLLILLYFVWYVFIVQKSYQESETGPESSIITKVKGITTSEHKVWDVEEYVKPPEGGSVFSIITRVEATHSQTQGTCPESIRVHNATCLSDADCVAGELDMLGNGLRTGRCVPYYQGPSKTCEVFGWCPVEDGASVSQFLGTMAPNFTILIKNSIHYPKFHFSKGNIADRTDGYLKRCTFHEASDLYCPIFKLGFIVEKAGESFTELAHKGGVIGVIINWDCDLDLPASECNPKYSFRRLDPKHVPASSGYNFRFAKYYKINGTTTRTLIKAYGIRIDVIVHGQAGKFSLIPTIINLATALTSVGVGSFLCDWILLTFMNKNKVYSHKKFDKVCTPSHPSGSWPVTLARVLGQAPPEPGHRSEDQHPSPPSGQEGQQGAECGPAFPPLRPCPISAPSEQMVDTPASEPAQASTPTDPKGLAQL
In words: Plate-based aequorin luminescence assay of P2X2 expressed in yeast. Type of series: cell-based. Also on record: expressed in transfected cells; host or cells: Saccharomyces cerevisiae BY4741 dCne1p, genome-integrated under the GAL1 promoter, aequorin on a high-copy plasmid. Conditions: for agonism / gating of P2X2: aequorin luminescence; for EC50: dose-response, area under luminescence curve. How it is done: Ion channel activity in yeast was tested with the purinergic P2X ion channel family. Channel gating was assessed by an aequorin assay in which aequorin is co-expressed with the receptor and, upon addition of the prosthetic group coelenterazine and addition of calcium, blue light is released. The aequorin-based functional assay was performed in all seven P2X receptors (FIG. 8). P2X1-7 were integrated into the chromosome to mitigate copy number variation between clones and were induced with galactose with the pGal1 promoter. […] Among those receptors that didn't work, it was suspected that improvements in expression and trafficking can improve functionality. For example, by modulating trafficking domains within the P2X4 receptor, aggregation was reduced in vesicles (FIG. 9), and it is believed that this tactic can be employed in other receptors. […] This can be because P2X2 has the slowest desensitization rates of the family (and is often considered “non-desensitizing”) and has the highest unitary conductance (30 pS).
To determine whether or not this truncated channel gated in yeast, an aequorin-based functional assay was used. Here aequorin, a bioluminescent protein, emits a photon upon binding calcium. This is done with the aid of coelenterazine, which must be added exogenously to yeast. The reaction is not catalytic, and the off-rate of calcium is too slow to observe on the timescales utilized in our assays. To optimize conditions for expression of both the receptor and reporter, a combination of integration, low-copy, and high-copy vectors was used. At this point, it was only possible to produce a signal upon addition of ATP, the native ligand, when both the receptor and reporter were expressed on high-copy plasmids (FIG. 56).
BY4741ΔCne1p cells were transformed with vectors containing P2X variants. Transformants were validated and made competent for a subsequent transformation with a vector containing aequorin under the expression of the constitutive PGK2 promoter. Overnight cells were induced with 2% […] for 20 hours. Following receptor expression, cells were collected by centrifugation and concentrated to 500 μL. The concentrated cells were then incubated with 5 μL of 1 mg/mL coelenterazine for 30 minutes at room temperature. Washed cells were then resuspended in softening buffer (1 M Sorbitol, 25 mM EDTA, 50 mM DTT), followed by washes in 1 M sorbitol and water. Cells were then resuspended in 50 mM MES/Tris pH 6.5 and aliquoted into a 96-well plate. Using an F500, 25 μL of cells were monitored for luminescence for 5 seconds. Upon addition of ligand or buffer (100 μL), cells were monitored for luminescence for varying times. Cell lysis was performed with the addition of 100 μL Tween20. For inhibition, varying concentrations of suramin were incubated with cells. Luminescence was monitored before and after the addition of 100 μL of 10 μM ATP. Areas under the curve were calculated and plotted against a negative control to determine the IC50.

Series [1] addresses T2, 3,5,7-trioxododecanoyl-CoA synthase (OLS) (Cannabis sativa, UniProt B1Q2B6).
T2 sequence (B1Q2B6 1-385): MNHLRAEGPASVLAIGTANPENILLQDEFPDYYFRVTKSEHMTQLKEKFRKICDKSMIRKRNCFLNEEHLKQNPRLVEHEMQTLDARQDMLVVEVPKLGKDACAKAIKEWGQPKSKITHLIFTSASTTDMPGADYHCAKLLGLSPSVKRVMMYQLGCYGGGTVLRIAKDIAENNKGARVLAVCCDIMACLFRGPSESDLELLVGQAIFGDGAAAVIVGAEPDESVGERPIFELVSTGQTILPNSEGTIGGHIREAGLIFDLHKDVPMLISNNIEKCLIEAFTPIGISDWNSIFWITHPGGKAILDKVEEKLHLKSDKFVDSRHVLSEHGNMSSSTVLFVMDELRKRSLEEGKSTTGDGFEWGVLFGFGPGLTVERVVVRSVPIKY
Conditions: cited from earlier work.

The next series relates to BY4741. Nature of the series: Metabolite toxicity determined by growth assays. Type of series: cell-based, Saccharomyces cerevisiae. Conditions: 4 mM of each metabolite, compared to synthetic media only. How it is done: Measurements of cell density (OD600) were taken in 10 min intervals. Each condition was tested in triplicate. For hexanoate growth conditions of aromatic prenyltransferase variants, transformed cells were seeded for 48 hrs and diluted 1:25 in 96-well grow-blocks in media containing 1-5 mM hexanoate. Measurements of cell density were taken in 24 hr intervals using an F500 plate reader. Final screening was performed with 10 mM hexanoate, 1% acetate supplemented synthetic complete media in 50 mL culture volumes.

The target of series [2] is T3, Tetrahydrocannabinolic acid synthase (THCA synthase) WT (Cannabis sativa, UniProt Q8GTB6).
T3 sequence (Q8GTB6 29-545): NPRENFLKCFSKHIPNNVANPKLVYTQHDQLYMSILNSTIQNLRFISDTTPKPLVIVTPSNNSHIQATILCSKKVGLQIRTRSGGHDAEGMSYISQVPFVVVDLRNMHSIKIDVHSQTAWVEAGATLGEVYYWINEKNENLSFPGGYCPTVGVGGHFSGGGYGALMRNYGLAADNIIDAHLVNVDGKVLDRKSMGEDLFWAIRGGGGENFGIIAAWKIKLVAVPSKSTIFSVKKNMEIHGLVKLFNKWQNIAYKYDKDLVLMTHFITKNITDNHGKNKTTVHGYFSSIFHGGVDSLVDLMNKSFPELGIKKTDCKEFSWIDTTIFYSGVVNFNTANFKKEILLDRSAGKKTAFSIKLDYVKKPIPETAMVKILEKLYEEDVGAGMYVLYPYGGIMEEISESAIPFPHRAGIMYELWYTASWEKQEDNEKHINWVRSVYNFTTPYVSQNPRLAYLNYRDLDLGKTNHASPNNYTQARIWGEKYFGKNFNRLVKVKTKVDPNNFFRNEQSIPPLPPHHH
Conditions: cited from earlier work.

Series [3] concerns the target T4, cannabidiolic acid synthase (CBDA synthase) (Cannabis sativa, UniProt A6P6V9).
T4 sequence (A6P6V9 29-544): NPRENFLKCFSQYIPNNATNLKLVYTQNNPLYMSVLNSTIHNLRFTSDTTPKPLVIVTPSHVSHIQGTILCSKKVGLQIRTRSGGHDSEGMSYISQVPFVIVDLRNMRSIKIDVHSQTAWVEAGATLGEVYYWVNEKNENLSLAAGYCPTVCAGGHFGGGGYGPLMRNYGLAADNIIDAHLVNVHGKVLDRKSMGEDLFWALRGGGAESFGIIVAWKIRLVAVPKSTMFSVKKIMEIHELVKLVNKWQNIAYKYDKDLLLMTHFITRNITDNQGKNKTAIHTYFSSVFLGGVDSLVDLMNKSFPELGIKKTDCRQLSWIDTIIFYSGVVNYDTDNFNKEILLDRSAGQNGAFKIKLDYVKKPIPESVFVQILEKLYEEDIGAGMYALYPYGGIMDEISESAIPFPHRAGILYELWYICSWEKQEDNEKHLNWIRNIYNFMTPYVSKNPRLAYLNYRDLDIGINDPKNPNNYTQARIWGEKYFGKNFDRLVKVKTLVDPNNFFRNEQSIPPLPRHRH
Conditions: cited from earlier work.

Series [4] has as its target T5, CsAAE1 Hexanoyl CoA Synthase (Cannabis sativa, UniProt H9A1V3).
T5 sequence (H9A1V3 1-720): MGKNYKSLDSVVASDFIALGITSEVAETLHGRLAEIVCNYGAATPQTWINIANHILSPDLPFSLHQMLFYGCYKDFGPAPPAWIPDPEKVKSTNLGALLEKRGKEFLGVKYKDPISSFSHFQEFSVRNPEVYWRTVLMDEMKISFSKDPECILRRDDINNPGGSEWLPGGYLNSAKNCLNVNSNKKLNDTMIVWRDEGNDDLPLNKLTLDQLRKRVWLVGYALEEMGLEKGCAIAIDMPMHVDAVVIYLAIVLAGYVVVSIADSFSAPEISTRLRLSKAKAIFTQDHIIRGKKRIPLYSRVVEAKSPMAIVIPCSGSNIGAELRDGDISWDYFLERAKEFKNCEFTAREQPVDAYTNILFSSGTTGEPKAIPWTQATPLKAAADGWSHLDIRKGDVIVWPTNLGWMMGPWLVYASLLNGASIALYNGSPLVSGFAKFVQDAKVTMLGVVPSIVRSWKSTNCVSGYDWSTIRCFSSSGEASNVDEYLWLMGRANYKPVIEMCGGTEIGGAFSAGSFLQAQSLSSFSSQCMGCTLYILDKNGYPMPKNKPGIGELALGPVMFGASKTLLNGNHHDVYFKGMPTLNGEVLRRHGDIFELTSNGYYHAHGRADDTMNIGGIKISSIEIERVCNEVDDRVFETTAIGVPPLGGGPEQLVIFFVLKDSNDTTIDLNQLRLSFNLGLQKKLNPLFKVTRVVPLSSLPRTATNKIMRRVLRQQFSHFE
Conditions: cited from earlier work.

The next series deals with wild-type CB2 receptor (Homo sapiens, UniProt P34972). Conditions: Gertsch 2008; cited from earlier work.
Chain of wild-type CB2 receptor (P34972 whole entry): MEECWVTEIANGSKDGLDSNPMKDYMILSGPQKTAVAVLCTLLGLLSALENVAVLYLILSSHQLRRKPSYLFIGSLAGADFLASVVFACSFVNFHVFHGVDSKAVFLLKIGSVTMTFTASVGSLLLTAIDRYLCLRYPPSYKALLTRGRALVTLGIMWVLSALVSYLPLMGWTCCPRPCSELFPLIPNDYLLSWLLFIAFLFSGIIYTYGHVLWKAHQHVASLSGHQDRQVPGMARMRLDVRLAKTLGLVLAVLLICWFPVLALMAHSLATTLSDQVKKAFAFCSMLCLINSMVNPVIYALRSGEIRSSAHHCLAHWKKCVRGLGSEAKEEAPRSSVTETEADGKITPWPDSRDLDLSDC
For the next series, the target named is T6, human CB2 receptor (Homo sapiens, UniProt P34972).
T6 construct: expressed in transfected cells; host or cells: Saccharomyces cerevisiae strains JG03-, JG04-, JG05-2.0 (zsGreen1 reporter), high-copy plasmid
T6 sequence (P34972 whole entry): as above
Type of series: cell-based. The settings on record: exogenously added ligand; GFP or zsGreen1 reporter.

Several values for one entry are separate records, joined by “and”; a condition that tells them apart may be missing. Equal values may be shown once. Entries after “also recorded” stand apart in the source; their conditions may differ.

Description for human CB2 receptor: The ability of three of strains to couple to the human CB2 receptor expressed on a high-copy number plasmid was tested. Ga subunits that were predicted to couple to the receptor (Shim et al., 2013) were used. The dose-response of 2-arachidonyl glycerol, the native endocannabinoid, in strains differing only in the terminal 5 amino acids of the Gα protein. Control receptors were built that contained stop codons in the middle of the gene. These are referred to as ‘broken’ receptors.
Cells were washed 3 times and resuspended in PBS. Fluorescent (485 nm/515 nm) and cell density (600 nm) measurements were taken on a Cytation 5. Data were plotted and analyzed using SigmaPlot10. For CB2, strains JG03-, JG04-, and JG05-2.0 were transformed and treated the same. Broken receptor (stop codons) were also included in these assays.

In the case of “2′(3′)-O-(4-Benzoylbenzoyl)adenosine-5′-triphosphate [BzATP]”, on P2X2, the “amplitude of generated signal lower than either ATP or 2-Cl-ATP” value is listed as 3 orders of magnitude; the “duration that the channel remains open, longer” value was roughly 10 fold; the “peak amplitude relative to that achieved with ATP” value is “approximately 20%”; the “agonism / gating of P2X2” value is given as “partial agonism”. The EC50 on P2X2 is 29.1 ± 6 µM.
As for `Nc1nc(Cl)nc2c1ncn2[C@@H]1O[C@H](COP(=O)(O)OP(=O)(O)OP(=O)(O)O)[C@@H](O)[C@H]1O` [2-Chloro ATP, 2-Chloro-Adenosinetriphosphate], on P2X2, the “agonism / gating of P2X2” value is on record as “full agonist behavior” and the EC50 is 26.7 ± 1.5 µM.
Turning to `CCCCCC(=O)CC(=O)CC(=O)CC(=O)SCCNC(=O)CCNC(=O)[C@H](O)C(C)(C)COP(=O)(O)OP(=O)(O)OC[C@H]1O[C@@H](n2cnc3c(N)ncnc32)[C@H](O)[C@@H]1OP(=O)(O)O` [3,5,7-trioxododecanoyl-CoA], in series [1], the Km is 56.9 µM and the turnover number (kcat) is 0.0577 s⁻¹.
For `Nc1ncnc2c1ncn2[C@@H]1O[C@H](COP(=O)(O)OP(=O)(O)NP(=O)(O)O)[C@@H](O)[C@H]1O` [AMP-PNP, adenylyl-imidodiphosphate], the “agonism / gating of P2X2” value on P2X2 was “did not gate P2X2”.
As to `C=C(C)[C@@H]1CCC(C)=C[C@H]1c1c(O)cc(CCCCC)cc1O` [CBD, cannabidiol], the “effect on yeast growth” value with BY4741 is recorded as “modest growth defect; also recorded: far less inhibitory”.
As to `CCCCCc1cc(O)c(C/C=C(\C)CCC=C(C)C)c(O)c1C(=O)O` [CBGA, Cannabigerolic acid], in series [2], the Michaelis-Menten constant (Km) is 134 µM and the catalytic constant (kcat) result is “.201 s⁻¹”. In addition, the “effect on yeast growth” value in the series with BY4741 is “modest growth defect; also recorded: far less inhibitory”. For the same compound, in series [3], the Michaelis-Menten constant (Km) is 137 µM and the turnover number (kcat) was 0.19 s⁻¹.
Turning to `CCCCCC(=O)O` [Hexanoate, Hexanoic acid], in the series with BY4741, the “effect on yeast growth” value is recorded as “severely inhibit growth”. Further, in the series on BY4741 (listed as Hexanoic acid), the “effect on yeast growth” value is on record as “strongly inhibit growth”. Further, in series [4], the Km was 3700 µM and the kcat is 2.0 s⁻¹.
Take `CCCCCC(=O)SCCNC(=O)CCNC(=O)[C@H](O)C(C)(C)COP(=O)(O)OP(=O)(O)OC[C@H]1O[C@@H](n2cnc3c(N)ncnc32)[C@H](O)[C@@H]1OP(=O)(O)O` [Hexanoyl-CoA]: the Michaelis constant (Km) in series [1] was 63.1 µM and 60.8 µM.
`CCCCCc1cc(O)cc(O)c1` [olivetol]: the “effect on yeast growth” value in the series with BY4741 is on record as “severely inhibit growth”.
`CCCCCc1cc(O)cc(O)c1C(=O)O` [olivetolic acid]: the “effect on yeast growth” value in the series with BY4741 is reported as “strongly inhibit growth”.
For the compound `C=C1CC/C=C(\C)CC[C@@H]2[C@@H]1CC2(C)C` [β-caryophyllene], the “detectable level of activation with the wild-type CB2 receptor” value at wild-type CB2 receptor was 1.9 µM. For the same compound, on human CB2 receptor, the “reporter response of CB2-expressing yeast to ligand” value is reported as “dose-dependent up-regulation of GFP expression; also recorded: responded to high concentration”.

What is called EC50 is the concentration at which the effect is half-maximal. Usually Km stands for the concentration of substrate that gives half-maximal velocity. One may read the kcat as the maximal rate divided by the concentration of active sites.
